# Reference: patent publication US20030206968A1, “Fungicidal mixtures” (priority 1999, published 2003)
# Experiments:
# Format in all cases: in vivo
# Botrytis cinerea = assay: Field test, Botrytis cinerea in vines; conditions: Example 33
# Method: (§1) The trials are carried out under greenhouse (Examples 1 to 32) or field conditions (Examples 33 to 40) in residual or curative applications. The fungicides are applied in single treatments, or in a combination comprising an azolopyrimidine of formula I and a compound selected from the classes (A), (B) and (C) as defined above. The compounds are applied in form of an aqueous spray mix obtained from a concentrated formulation or the technical material.
# (§2) For the field study formulated Azolopyrimidine A, B or C and formulated compounds from the classes (A), (B) and (C) were used.
# (§3) Assessments of the diseases took place at the indicated day after the application of the compounds. Per cent infected leaf area infected was evaluated. The efficacy of the compounds/compounds mixtures to control the diseases was calculated by using the formula given above under item 4: […]
# (§4) Synergy was calculated using the % disease control values of specific treatments for the two COLBY formula given hereinabove
# The compounds are applied according to good agricultural practice in the form of an aqueous spray mix obtained from a concentrated formulation or the technical material at a rate of 400 l/ha. The disease control is evaluated according to the formula given for the greenhouse tests. […]
# Puccinia recondita [1] = assay: Field test, Puccinia recondita on wheat; conditions: metconazole 45 g/ha alone, 50 days after application
# Method: as §1, §2, §3, §4
# (§5) The compounds are applied according to good agricultural practice in the form of an aqueous spray mix obtained from a concentrated formulation or the technical material at a rate of 400 l/ha. The disease control is evaluated according to the formula given for the greenhouse tests.
# (§6) Fungicidal efficacy of the mixture of Azolopyrimidine A and different cereal fungicides in the field against Puccinia recondita on wheat 50 days after application The tank mix was obtained from an SC formulation containing 100 g Azolopyrimidine A per liter and commercially available formulations of metconazole, epoxiconazole, propiconazole or kresoxim methyl, respectively.
# Septoria tritici [2] = assay: Greenhouse, Septoria tritici on wheat, 1 day residual; conditions: Example 9
# Method: as §1
# (§7) 1. Seed is planted in 6 cm diameter plastic pots and maintained in the greenhouse.
# (§8) 2. When the primary leaf is fully expanded in the case of cereals or several leaves are present in the case of dicots, formulated test compounds are sprayed with a three nozzle overhead fungicide sprayer to near run-off. Alternatively, a single nozzle overhead track sprayer is used for application of the compounds to cereals at a rate of 200 l/ha. Plants are then allowed to air-dry.
# (§9) 3. Inoculation precedes treatment in the case of curative evaluations and follows treatment in case of residual evaluations. For inoculation of powdery mildew disease, plants are set up on greenhouse benches with bottom watering mats and inoculated by dusting them with conidia from infected plants. Between inoculation and treatment for curative evaluations and between treatment and inoculation for residual evaluations, plants are maintained in the greenhouse with bottom watering.
# (§10) For inoculation of non-powdery mildew diseases, an aqueous spore suspension of the pathogen is applied to the plant and the plants are kept 1-2 days in a moist infection chamber before being returned to the greenhouse where they are maintained by bottom watering.
# (§11) 4. Disease on the foliage as percent leaf area with disease symptoms/signs is evaluated about 7 days after inoculation. In the case of wheat, the tips and bases of the leaves are excluded from the evaluation. [formula]
# (§12) 1. Technical compounds are formulated in a solvent/surfactant system consisting of 5% acetone and 0.05% Tween 20 in deionized water. Compounds are dissolved in acetone prior to addition of the water; the Tween 20 can be added through either the acetone or the water. Dilutions are made using the solvent/surfactant system. Formulated compounds are prepared using deionized water.
# (§13) 2. Two kinds of controls are included: Plants treated with the solvent/surfactant solution and inoculated (Solvent Blank). Untreated plants which are inoculated (Inoculated Control).
# as §3, §4
# Fungicidal efficacy of the mixture of Azolopyrimidine C+metconazole (1 day residual) against Septoria tritici on wheat The tank mix was obtained from a SC formulation containing 100 g Azoplopyrimidine C per liter and an EC containing 100 g metconazole per liter.
# Blumeria graminis = assay: Field test, Blumeria graminis on wheat; conditions: metconazole 45 g/ha alone, 15 days after application
# Method: as §1, §2, §3, §4, §5
# (§14) Fungicidal efficacy of the mixture of (S)-Azolopyrimidine C+cyproconazole in the field against Blumeria graminis on wheat 17 days after application The tank mix was obtained from a SC formulation containing 100 g (S)-Azolopyrimidine C per liter and an EC formulation containing 60 g cyproconazole per liter.
# as §14, with “C+azoxystrobin” for “C+cyproconazole”, “a SC” for “an EC”, “250” for “60”, “azoxystrobin” for “cyproconazole”, “kg.” for “liter.”
# as §6, with “Blumeria graminis” for “Puccinia recondita”, “15” for “50”, “epoxiconazole” for “epoxiconazole, propiconazole”
# Rhynchosporium secalis = assay: Greenhouse, Rhynchosporium secalis on barley, 1 day residual; conditions: Example 8; dose rate 100 ppm
# Method: as §1, §7
# 2. When the primary leaf is fully expanded in the case of cereals or several leaves are present in the case of dicots, formulated test compounds are sprayed with a three nozzle overhead fungicide sprayer to near run-off. […]
# 4. Disease on the foliage as percent leaf area with disease symptoms/signs is evaluated about 7 days after inoculation. […]
# as §3
# Synergy was calculated using the % disease control values of specific treatments for the two COLBY formula given hereinabove […]
# Puccinia recondita [3] = assay: Greenhouse, Puccinia recondita on wheat, 1 day residual; conditions: Puccinia recondita, Example 11, read-out: Observed Efficacy
# From the text: as §1, with “The” for “The trials are carried out under greenhouse (Examples 1 to 32) or field conditions (Examples 33 to 40) in residual or curative applications. The”
# as §7, §8, §9, §10, §11, §12, §13, §3, §4
# Fungicidal efficacy of the mixture of Azolopyrimidine C+metconazole (1 day residual) against Puccinia recondita on wheat The tank mix was obtained from a SC formulation containing 100 g Azolopyrimidine C per liter and an EC containing 100 g metconazole per liter. […]
# Fungicidal efficacy of the mixture of Azolopyrimidine C+fluazinam (1 day residual) against Puccinia recondita on wheat The tank mix was obtained from technical material of Azolopyrimidine C and a SC formulation containing 500 g fluazinam per liter. […]
# Septoria tritici [4] = assay: Field test, Septoria tritici on wheat
# Method: as §1, §2, §3, §4, §5
# Fungicidal efficacy of the mixture of Azolopyrimidine C+metconazole in the field against Septoria tritici on wheat The tank mix was obtained from an EC formulation containing 150 g Azolopyrimidine C per liter and a SL formulation containing 60 g metconazole per liter. The observed and expected efficacies with different rates are given in Table XXXIVa (19 days after application) and Table XXXIVb (25 days after application):
# Fungicidal efficacy of the mixture of (S)-Azolopyrimidine C+kresoxim methyl in the field against Septoria tritici on wheat The tank mix was obtained from a SC formulation containing 100 g (S)-Azolopyrimidine C per liter and a WG formulation containing 500 g kresoxim methyl per kg. The observed and expected efficacies with different rates are given in Tables XXXVa (7 days after application), XXXVb (22 days after application), XXXVc (34 days after application), and XXXVd (41 days after application):
# as §6, with “fungicides” for “fungicides in”, “Septoria tritici” for “Puccinia recondita”, “15” for “50”, “epoxiconazole” for “epoxiconazole, propiconazole”, “propiconazole,” for “kresoxim methyl,”
# Pyrenophora teres = assay: Greenhouse, Pyrenophora teres on barley, 1 day residual; conditions: Example 10
# Method: as §1, §7, §8, §9, §10, §11, §12, §13, §3, §4
# Fungicidal efficacy of the mixture of Azolopyrimidine C+metconazole (1 day residual) against Pyrenophora teres on barley The tank mix was obtained from a SC formulation containing 100 g Azolopyrimidine C per liter and an EC containing 100 g metconazole per liter.
structure (smiles),measurement,setting,value
"Fc1cccc(Cl)c1-c1c(Cl)nc2ncnn2c1NCC(F)(F)F [Azolopyrimidine B, 5-chloro-6-(2-chloro-6-fluorophenyl)-7-(2,2,2-trifluoroethylamino)-[1,2,4]triazolo[1,5-a]pyrimidine]",Observed Efficacy,Botrytis cinerea; dose rate 250 g/ha,58%
CC1(C)CCC(Cc2ccc(Cl)cc2)C1(O)Cn1cncn1 (stereo not shown) [metconazole],Observed Efficacy,Puccinia recondita [1],75
same,Observed Efficacy,Septoria tritici [2]; dose rate 2 ppm,0%
same,Observed Efficacy,Septoria tritici [2]; dose rate 5 ppm,0%
same,Observed Efficacy,Septoria tritici [2]; dose rate 8 ppm,0%
same,Observed Efficacy,Septoria tritici [2]; dose rate 10 ppm,0%
same,Observed Efficacy,Septoria tritici [2]; dose rate 25 ppm,0%
same,Observed Efficacy,Blumeria graminis,54
same,Observed Efficacy,Rhynchosporium secalis,87%
same,pest or weed control at 2 ppm,Puccinia recondita [3]; dose rate 2 ppm,0%
same,pest or weed control at 8 ppm,Puccinia recondita [3]; dose rate 8 ppm,0%
same,pest or weed control at 10 ppm,Puccinia recondita [3]; dose rate 10 ppm,8%
same,pest or weed control at 25 ppm,Puccinia recondita [3]; dose rate 25 ppm,14%
same,pest or weed control at 40 ppm,Puccinia recondita [3]; dose rate 40 ppm,31%
same,pest or weed control at 50 ppm,Puccinia recondita [3]; dose rate 50 ppm,72%
same,pest or weed control at 125 ppm,Puccinia recondita [3]; dose rate 125 ppm,97%
same,Observed Efficacy,"Septoria tritici [4]; Example 34, 19 days after application, dose rate 15 g/ha",9%
same,Observed Efficacy,"Septoria tritici [4]; Example 34, 19 days after application, dose rate 30 g/ha",36%
same,Observed Efficacy,"Septoria tritici [4]; Example 34, 19 days after application, dose rate 45 g/ha",24%
same,Observed Efficacy,"Septoria tritici [4]; Example 34, 25 days after application, dose rate 15 g/ha",33%
same,Observed Efficacy,"Septoria tritici [4]; Example 34, 25 days after application, dose rate 60 g/ha",48%
same,Observed Efficacy,"Septoria tritici [4]; metconazole 45 g/ha alone, 15 days after application, field, wheat",77
same,Observed Efficacy,Pyrenophora teres; dose rate 10 ppm,4%
same,Observed Efficacy,Pyrenophora teres; dose rate 25 ppm,9%
same,Observed Efficacy,Pyrenophora teres; dose rate 40 ppm,34%
same,Observed Efficacy,Pyrenophora teres; dose rate 125 ppm,68%
same,Observed Efficacy,Pyrenophora teres; dose rate 200 ppm,73%
Cc1cc(C)nc(Nc2ccccc2)n1 [pyrimethanil],Observed Efficacy,Botrytis cinerea; dose rate 500 g/ha,66%
